In ChEMBL document CHEMBL4316596, “Antimicrobial Peptides with High Proteolytic Resistance for Combating Gram-Negative Bacteria” (J Med Chem, 2019):

What was measured:
Escherichia coli [1] = experiment: Antimicrobial activity against Escherichia coli ATCC 25922 after 24 hrs by NCCLS-protocol based assay; format: functional
Escherichia coli [2] = experiment: Antimicrobial activity against Escherichia coli UB1005 after 24 hrs by NCCLS-protocol based assay; format: functional
Escherichia coli [3] = experiment: Antimicrobial activity against Escherichia coli 078 after 24 hrs by NCCLS-protocol based assay; format: functional
Escherichia coli [4] = experiment: Antimicrobial activity against Escherichia coli K88 after 24 hrs by NCCLS-protocol based assay; format: functional
Escherichia coli [5] = experiment: Antimicrobial activity against Escherichia coli K99 after 24 hrs by NCCLS-protocol based assay; format: functional
Pseudomonas aeruginosa [6] = experiment: Antimicrobial activity against Pseudomonas aeruginosa ATCC 27853 after 24 hrs by NCCLS-protocol based assay; format: functional
Pseudomonas aeruginosa [7] = experiment: Antimicrobial activity against Pseudomonas aeruginosa PAO1 after 24 hrs by NCCLS-protocol based assay; format: functional
Pseudomonas aeruginosa [8] = experiment: Antimicrobial activity against Pseudomonas aeruginosa CICC 21630 clinical isolates after 24 hrs by NCCLS-protocol based assay; format: functional
Pseudomonas aeruginosa [9] = experiment: Antimicrobial activity against Pseudomonas aeruginosa 26305 clinical isolates after 24 hrs by NCCLS-protocol based assay; format: functional
Pseudomonas aeruginosa [10] = experiment: Antimicrobial activity against Pseudomonas aeruginosa CICC 21625 clinical isolates after 24 hrs by NCCLS-protocol based assay; format: functional
Pseudomonas aeruginosa [11] = experiment: Antimicrobial activity against Pseudomonas aeruginosa 25349 clinical isolates after 24 hrs by NCCLS-protocol based assay; format: functional
Salmonella typhimurium [12] = experiment: Antimicrobial activity against Salmonella typhimurium ATCC 14028 after 24 hrs by NCCLS-protocol based assay; format: functional; conditions: Salmonella enterica subsp. enterica serovar Typhimurium
Salmonella typhimurium [13] = experiment: Antimicrobial activity against Salmonella typhimurium C7731 after 24 hrs by NCCLS-protocol based assay; format: functional; conditions: Salmonella enterica subsp. enterica serovar Typhimurium
[14] = tested on: Salmonella enterica subsp. enterica serovar Pullorum; experiment: Antimicrobial activity against Salmonella pullorum C7913 after 24 hrs by NCCLS-protocol based assay; format: functional
Acinetobacter baumannii [15] = experiment: Antimicrobial activity against Acinetobacter baumannii after 24 hrs by NCCLS-protocol based assay; format: functional
Klebsiella pneumoniae [16] = experiment: Antimicrobial activity against Klebsiella pneumoniae after 24 hrs by NCCLS-protocol based assay; format: functional
Pseudomonas aeruginosa [17] = experiment: Ratio of MBC against Pseudomonas aeruginosa ATCC 27853 after 26 to 60 passages to MBC against Pseudomonas aeruginosa ATCC 27853; format: functional, organism-based
Escherichia coli [18] = experiment: Bactericidal activity against Escherichia coli ATCC 25922 incubated for 4 hrs followed by culture spread on agar plates and cultured overnight; format: functional
Escherichia coli [19] = experiment: Bactericidal activity against Escherichia coli UB1005 incubated for 4 hrs followed by culture spread on agar plates and cultured overnight; format: functional
Escherichia coli [20] = experiment: Bactericidal activity against Escherichia coli 078 incubated for 4 hrs followed by culture spread on agar plates and cultured overnight; format: functional
Escherichia coli [21] = experiment: Bactericidal activity against Escherichia coli K88 incubated for 4 hrs followed by culture spread on agar plates and cultured overnight; format: functional
Escherichia coli [22] = experiment: Bactericidal activity against Escherichia coli K99 incubated for 4 hrs followed by culture spread on agar plates and cultured overnight; format: functional
Pseudomonas aeruginosa [23] = experiment: Bactericidal activity against Pseudomonas aeruginosa ATCC 27853 incubated for 4 hrs followed by culture spread on agar plates and cultured overnight; format: functional
Pseudomonas aeruginosa [24] = experiment: Bactericidal activity against Pseudomonas aeruginosa PAO1 incubated for 4 hrs followed by culture spread on agar plates and cultured overnight; format: functional
Pseudomonas aeruginosa [25] = experiment: Bactericidal activity against Pseudomonas aeruginosa CICC 21630 clinical isolates incubated for 4 hrs followed by culture spread on agar plates and cultured overnight; format: functional
Pseudomonas aeruginosa [26] = experiment: Bactericidal activity against Pseudomonas aeruginosa 26305 clinical isolates incubated for 4 hrs followed by culture spread on agar plates and cultured overnight; format: functional
Pseudomonas aeruginosa [27] = experiment: Bactericidal activity against Pseudomonas aeruginosa CICC 21625 clinical isolates incubated for 4 hrs followed by culture spread on agar plates and cultured overnight; format: functional
Pseudomonas aeruginosa [28] = experiment: Bactericidal activity against Pseudomonas aeruginosa 25349 clinical isolates incubated for 4 hrs followed by culture spread on agar plates and cultured overnight; format: functional
Salmonella typhimurium [29] = experiment: Bactericidal activity against Salmonella typhimurium ATCC 14028 incubated for 4 hrs followed by culture spread on agar plates and cultured overnight; format: functional; conditions: Salmonella enterica subsp. enterica serovar Typhimurium
Salmonella typhimurium [30] = experiment: Bactericidal activity against Salmonella typhimurium C7731 incubated for 4 hrs followed by culture spread on agar plates and cultured overnight; format: functional; conditions: Salmonella enterica subsp. enterica serovar Typhimurium
[31] = tested on: Salmonella enterica subsp. enterica serovar Pullorum; experiment: Bactericidal activity against Salmonella pullorum C7913 incubated for 4 hrs followed by culture spread on agar plates and cultured overnight; format: functional
Acinetobacter baumannii [32] = experiment: Bactericidal activity against Acinetobacter baumannii incubated for 4 hrs followed by culture spread on agar plates and cultured overnight; format: functional
Klebsiella pneumoniae [33] = experiment: Bactericidal activity against Klebsiella pneumoniae incubated for 4 hrs followed by culture spread on agar plates and cultured overnight; format: functional

Sequence: GENTAMICIN
- MIC>95 (Escherichia coli [1]): 1 µM
- MIC>95 (Escherichia coli [2]): 0.25 µM
- MIC>95 (Escherichia coli [3]): 0.25 µM
- MIC>95 (Escherichia coli [4]): 0.125 µM
- MIC>95 (Escherichia coli [5]): 0.25 µM
- MIC>95 (Pseudomonas aeruginosa [6]): 1 µM
- MIC>95 (Pseudomonas aeruginosa [7]): 2 µM
- MIC>95 (Pseudomonas aeruginosa [8]): 1 µM
- MIC>95 (Pseudomonas aeruginosa [9]): > 64 µM
- MIC>95 (Pseudomonas aeruginosa [10]): 1 µM
- MIC>95 (Pseudomonas aeruginosa [11]): 2 µM
- MIC>95 (Salmonella typhimurium [12]): 1 µM
- MIC>95 (Salmonella typhimurium [13]): 1 µM
- MIC>95 [14]: 1 µM
- MIC>95 (Acinetobacter baumannii [15]): 0.25 µM
- MIC>95 (Klebsiella pneumoniae [16]): 0.5 µM
- Ratio (Pseudomonas aeruginosa [17]): 32
- MBC>99.9 (Escherichia coli [18]): 2 µM
- MBC>99.9 (Escherichia coli [19]): 0.25 µM
- MBC>99.9 (Escherichia coli [20]): 0.5 µM
- MBC>99.9 (Escherichia coli [21]): 0.25 µM
- MBC>99.9 (Escherichia coli [22]): 0.25 µM
- MBC>99.9 (Pseudomonas aeruginosa [23]): 1 µM
- MBC>99.9 (Pseudomonas aeruginosa [24]): 2 µM
- MBC>99.9 (Pseudomonas aeruginosa [25]): 2 µM
- MBC>99.9 (Pseudomonas aeruginosa [26]): > 64 µM
- MBC>99.9 (Pseudomonas aeruginosa [27]): 1 µM
- MBC>99.9 (Pseudomonas aeruginosa [28]): 2 µM
- MBC>99.9 (Salmonella typhimurium [29]): 2 µM
- MBC>99.9 (Salmonella typhimurium [30]): 2 µM
- MBC>99.9 [31]: 1 µM
- MBC>99.9 (Acinetobacter baumannii [32]): 0.5 µM
- MBC>99.9 (Klebsiella pneumoniae [33]): 0.5 µM
